Results taken from US9221754B2, “Crystalline forms of zofenopril calcium” (Generics [UK] Limited, priority 2008, dated 2015).
Counter-ions that a name gives are not always drawn.

What was measured:
Assay type in all cases: physicochemical
[1] = Pellet compression with an Infrared spectrophotometer press machine; details: pressure exerted ~10 Tons, calcium salt
[2] = Hygroscopicity of the crystalline forms
[3] = Slurry in water (10% w/v) exposed to 50-55° C. for six hours; details: calcium salt
[4] = Mechanical stress during particle size reduction (milling using a multimill); details: calcium salt
[5] = Polymorphic purity under dosage form preparation conditions (micronization or wet granulation)

Row | Compound | polymorphic stability to compression, by XRPD, DSC and TGA [1] | hygroscopicity [2] | polymorphic stability of the water slurry, by XRPD, DSC and TGA [3] | polymorphic stability to mechanical stress (milling), by XRPD, DSC and TGA [4] | change in polymorphic purity during dosage form preparation [5]
1 | C[C@H](CSC(=O)c1ccccc1)C(=O)N1C[C@@H](Sc2ccccc2)C[C@H]1C(=O)O [Polymorph E, (4S)-1-[(2S)-3-(benzoylthio)-2-methylpropionyl]-4-(phenylthio)-L-proline calcium salt] | identical to that before compression | non-hygroscopic | no change | retained its polymorphic composition | 
2 | C[C@H](CSC(=O)c1ccccc1)C(=O)N1C[C@@H](Sc2ccccc2)C[C@H]1C(=O)O [form C, (4S)-1-[(2S)-3-(benzoylthio)-2-methylpropionyl]-4-(phenylthio)-L-proline calcium salt] |  |  |  |  | very slight changes in polymorphic purity
3 | C[C@H](CSC(=O)c1ccccc1)C(=O)N1C[C@@H](Sc2ccccc2)C[C@H]1C(=O)O [form F, (4S)-1-[(2S)-3-(benzoylthio)-2-methylpropionyl]-4-(phenylthio)-L-proline calcium salt] |  | non-hygroscopic |  |  | 
